This assay concerns Zucker Fatty rats. The experiment in a line: Evaluation of hypoglycemic action. The class given is in vivo, rat. Conditions: gavage 3 mg/kg, HCl salt form, 2 or 4 hours after dosing. Here is the method:
Zucker Fatty rats (male, 11-19 week-old, Charles River Japan, Inc.) known to spontaneously develop hyperglycemia were randomly assigned to the groups (6 per group). The animals were individually housed in a polycarbonate cage and allowed to drink water freely from a watering bottle. The animals in the compound groups were gavaged with compound No. 10, 87, 19, or 69 at the dose of 3 mg/kg. These compounds were used as HCl salt form thereof, converted by the method according to Example 3, step 6 from TFA salt form thereof upon the necessity. The animals in the control group were only treated with the vehicle (0.5% methylcellulose). Animals were allowed free access to the feed (CRF-1, Oriental Yeast Co., Ltd.) during the experiment. An aspirate of the blood (6 μL) was collected from the tail vein on the time point of immediately before dosing (time 0) as well as 2, 4, and 8 hours after dosing. The blood glucose levels were determined with ACCU-CHEK Aviva (Roche Diagnostics K.K.).
In the case of `CCCN(CC(=O)O)C(=O)C(C)(C)Cc1ccc(C(=O)Oc2ccc(C(=N)N)cc2F)s1.Cl` [Compound 10, N-{3-[5-(4-amidino-2-fluorophenoxycarbonyl)thiophen-2-yl]-2,2-dimethylpropionyl}-N-propylglycine hydrochloride], the “blood glucose levels compared with vehicle group” value is “significantly decreased”.

In the case of `CCC(CC)(Cc1ccc(C(=O)Oc2ccc(C(=N)N)cc2F)s1)C(=O)N[C@@H](CC(=O)O)C(=O)O.Cl` [Compound 19], the “blood glucose levels compared with vehicle group” value was “significantly decreased”.

For the compound `CC(C)(Cc1ccc(C(=O)Oc2ccc(C(=N)N)cc2F)s1)C(=O)N[C@@H](C(=O)O)c1ccc(O)cc1` [Compound 69], the “blood glucose levels compared with vehicle group” value was “significantly decreased”.

For the origin of these results see patent US9655879B2, “Heteroarylcarboxylic acid ester derivative” (EA Pharma Co., Ltd., priority 2012, dated 2017).
